Experimental data taken from the C3SDB collision cross section collection.

Conditions: [M-H]-; instrument: TW; calibrated with phosphatidylcholines (ESI+) and phosphatidylethanolamines (ESI-)

Row | collision cross section (N2) [Å²] | SMILES
1 | 267 | CCCCCCCC/C=C\CCCCCCCCCC(=O)O[C@H](COC(=O)CCCCCCCCCCCC)COP(=O)(O)OC[C@@H](O)CO [PG(33:1)]
2 | 275 | CCCCCCCCCCCCCCCCCCCCC(=O)O[C@H](COC(=O)CCCCCCCCCCCCC)COP(=O)(O)OC[C@@H](O)CO [PG(35:0)]
3 | 255 | CCCC/C=C\CCCCCCCC(=O)OC[C@H](COP(=O)(O)OC[C@@H](O)CO)OC(=O)CCCCCCC/C=C\CCCCCC [PG(30:2)]
4 | 276.2 | CC/C=C\C/C=C\C/C=C\CCCCCCCC(=O)OC[C@H](CO[C@@H]1O[C@H](CO)[C@H](O)C(O)C1O)OC(=O)CCCCCCC/C=C\C/C=C\C/C=C\CC (some centres not stated) [MGDG(18:3/18:3)]
5 | 255.2 | CCCCCCCCCCCCCCCC(=O)O[C@H](COC(=O)CCCCCCCCCCCC)COP(=O)(O)OC[C@@H](O)CO [PG(29:0)]
6 | 273.2 | CCCC/C=C\CCCCCCCC(=O)OC[C@H](COP(=O)(O)OC[C@@H](O)CO)OC(=O)CCCCCCCCCCCCCCCCCCCC [PG(35:1)]
7 | 265.1 | CCCCCCC/C=C\CCCCCCCC(=O)O[C@H](CO/C=C\CCCCCCCCCCCCCC)COP(=O)(O)OC[C@@H](O)CO [PG(p33:1)]

Conditions: [M+H]+; instrument: TW; calibrated with polyalanine

Row | SMILES | collision cross section (N2) [Å²]
8 | Nc1ccc(C(=O)O)cc1 [PABA] | 131
9 | N[C@@H](CC(=O)O)C(=O)O [Aspartic acid] | 122
10 | NCCC[C@H](N)C(=O)O [Ornithine] | 121
11 | C[N+](C)(C)C[C@H](O)CC(=O)[O-] [Carnitine] | 130

Second part, the compound after the results:

Row | collision cross section (N2) [Å²] | SMILES
12 | 142 | CN=C(NC)NCCC[C@H](N)C(=O)O [SDMA]
13 | 145 | N[C@@H](Cc1c[nH]c2ccccc12)C(=O)O [Tryptophan]
14 | 165 | N[C@@H](CCC(=O)N[C@@H](CS)C(=O)NCC(=O)O)C(=O)O [glutathione]
15 | 172 | Nc1ncnc2c1ncn2[C@@H]1O[C@@H]2COP(=O)(O)O[C@H]2[C@H]1O [cAMP]

Same assay, conditions: [M+Na]+; instrument: TW; calibrated with polyalanine

Row | collision cross section (N2) [Å²] | SMILES
16 | 173 | OC[C@H]1O[C@H](O[C@H]2O[C@H](CO)[C@@H](O)[C@H](O)[C@H]2O)[C@H](O)[C@@H](O)[C@@H]1O [trehalose]
17 | 146 | O=C[C@H](O)[C@H](O)[C@H](O)COP(=O)(O)O [Ribose 5-monophosphate]
18 | 173 | OC[C@H]1O[C@@H](O[C@H]2[C@H](O)[C@@H](O)[C@H](O)O[C@@H]2CO)[C@H](O)[C@@H](O)[C@H]1O [lactose]
19 | 170 | OC[C@H]1O[C@@](CO)(O[C@H]2O[C@H](CO)[C@@H](O)[C@H](O)[C@H]2O)[C@@H](O)[C@@H]1O [sucrose]
20 | 132 | O=P(O)(O)OC[C@H](O)CO [Glycerol monophosphate]

Conditions: [M+CH3COO]-; instrument: TW; calibrated with phosphatidylcholines (ESI+) and phosphatidylethanolamines (ESI-)

Row | collision cross section (N2) [Å²] | SMILES
21 | 289.1 | CCCCCC/C=C\CCCCCCCCCC(=O)OC[C@H](COP(=O)([O-])OCC[N+](C)(C)C)OC(=O)CCCCCCCCCCCCCCC [PC(34:1)]

Same assay, conditions: [M+H]+; instrument: TW; calibrated with phosphatidylcholines (ESI+) and phosphatidylethanolamines (ESI-)

Row | collision cross section (N2) [Å²] | SMILES
22 | 285.3 | CCCCCC/C=C\CCCCCCCCCC(=O)OC[C@H](COP(=O)([O-])OCC[N+](C)(C)C)OC(=O)CCCCCCCCCCCCCCC [PC(34:1)]
23 | 285.8 | CCCCCCCCCCCCCCCCCCCCC(=O)O[C@H](COC(=O)CCCCCCCCCCCC)COP(=O)([O-])OCC[N+](C)(C)C [PC(34:0)]
24 | 280.4 | CCCCC/C=C\C/C=C\CCCCCCCCCC(=O)O[C@H](COC(=O)CCCCCCC/C=C\C/C=C\CCCCC)COP(=O)(O)OCCN [PE(38:4)]
25 | 275.7 | CCCCC/C=C\C/C=C\CCCCCCCCCC(=O)O[C@H](COC(=O)CCCCCCCCCCCCCCC)COP(=O)(O)OCCN [PE(36:2)]

Same assay, conditions: [M+Na]+; instrument: TW; calibrated with phosphatidylcholines (ESI+) and phosphatidylethanolamines (ESI-)

Row | collision cross section (N2) [Å²] | SMILES
26 | 269.8 | CCCC/C=C\CCCCCCCC(=O)OC[C@H](COP(=O)(O)OC[C@@H](O)CO)OC(=O)CCCCCCC/C=C\CCCCCCCC [PG(32:2)]
27 | 287.5 | CCCCCC/C=C\CCCCCCCC(=O)OC[C@H](COP(=O)(O)OC[C@@H](O)CO)OC(=O)CCCCCCCCCCCCCCCCCCC [PG(36:1)]

Same assay, conditions: [M-H]-; instrument: TW; calibrated with phosphatidylcholines (ESI+) and phosphatidylethanolamines (ESI-)

Row | collision cross section (N2) [Å²] | SMILES
28 | 261 | CCCC/C=C\CCCCCCCC(=O)OC[C@H](COP(=O)(O)OC[C@@H](O)CO)OC(=O)CCCCCCC/C=C\CCCCCCCC [PG(32:2)]
29 | 275.7 | CCCCCC/C=C\CCCCCCCC(=O)OC[C@H](COP(=O)(O)OC[C@@H](O)CO)OC(=O)CCCCCCCCCCCCCCCCCCC [PG(36:1)]
30 | 271.1 | CCCCC/C=C\C/C=C\CCCCCCCCCC(=O)O[C@H](COC(=O)CCCCCCC/C=C\C/C=C\CCCCC)COP(=O)(O)OCCN [PE(38:4)]
31 | 267.4 | CCCCC/C=C\C/C=C\CCCCCCCCCC(=O)O[C@H](COC(=O)CCCCCCCCCCCCCCC)COP(=O)(O)OCCN [PE(36:2)]

Conditions: [M+H]+; instrument: DT; single field, calibrated with Agilent tune mix (Agilent)

Row | collision cross section (N2) [Å²] | SMILES
32 | 287.1 | CCCCCC/C=C\CCCCCCCCCC(=O)OC[C@H](COP(=O)([O-])OCC[N+](C)(C)C)OC(=O)CCCCCCCCCCCCCCC [PC(34:1)]
33 | 289.7 | CCCCCCCCCCCCCCCCCCCCC(=O)O[C@H](COC(=O)CCCCCCCCCCCC)COP(=O)([O-])OCC[N+](C)(C)C [PC(34:0)]
34 | 292 | CCCCCC/C=C\CCCCCCCC(=O)OC[C@H](COP(=O)(O)OC[C@@H](O)CO)OC(=O)CCCCCCCCCCCCCCCCCCC [PG(36:1)]
35 | 282.9 | CCCCC/C=C\C/C=C\CCCCCCCCCC(=O)O[C@H](COC(=O)CCCCCCC/C=C\C/C=C\CCCCC)COP(=O)(O)OCCN [PE(38:4)]
36 | 279.3 | CCCCC/C=C\C/C=C\CCCCCCCCCC(=O)O[C@H](COC(=O)CCCCCCCCCCCCCCC)COP(=O)(O)OCCN [PE(36:2)]

Same assay, conditions: [M+NH4]+; instrument: DT; single field, calibrated with Agilent tune mix (Agilent)

Row | collision cross section (N2) [Å²] | SMILES
37 | 292.5 | CCCCCC/C=C\CCCCCCCC(=O)OC[C@H](COP(=O)(O)OC[C@@H](O)CO)OC(=O)CCCCCCCCCCCCCCCCCCC [PG(36:1)]

Same assay, conditions: [M+Na]+; instrument: DT; single field, calibrated with Agilent tune mix (Agilent)

Row | collision cross section (N2) [Å²] | SMILES
38 | 287.5 | CCCCCC/C=C\CCCCCCCC(=O)OC[C@H](COP(=O)(O)OC[C@@H](O)CO)OC(=O)CCCCCCCCCCCCCCCCCCC [PG(36:1)]
39 | 284.6 | CCCCC/C=C\C/C=C\CCCCCCCCCC(=O)O[C@H](COC(=O)CCCCCCCCCCCCCCC)COP(=O)(O)OCCN [PE(36:2)]

Same assay, conditions: [M-H]-; instrument: DT; single field, calibrated with Agilent tune mix (Agilent)

Row | collision cross section (N2) [Å²] | SMILES
40 | 266.4 | CCCCCCCC/C=C\CCCCCCCCCC(=O)O[C@H](COC(=O)CCCCCCCCCCCC)COP(=O)(O)OC[C@@H](O)CO [PG(33:1)]
41 | 268.5 | CCCCC/C=C\C/C=C\CCCCCCCCCC(=O)O[C@H](COC(=O)CCCCCCCCCCCCCCC)COP(=O)(O)OCCN [PE(36:2)]
42 | 272.7 | CCCC/C=C\CCCCCCCC(=O)OC[C@H](COP(=O)(O)OC[C@@H](O)CO)OC(=O)CCCCCCCCCCCCCCCCCCCC [PG(35:1)]
